Data taken from ChEMBL document CHEMBL2406904, “Mitigation of cardiovascular toxicity in a series of CSF-1R inhibitors, and the identification of AZD7507” (Bioorg Med Chem Lett, 2013).

What was measured:
Format in all cases: ADME, organism-based
[1] = Half life in rat at 10 mg/kg, po and 3 mg/kg, iv; conditions: in vivo
[2] = Volume of distribution at steady state in rat at 10 mg/kg, po and 3 mg/kg, iv; conditions: in vivo, read-out: Vdss
[3] = Oral bioavailability in rat at 10 mg/kg; conditions: in vivo
[4] = Clearance in rat at 10 mg/kg, po; set-up: dose 10 mg/kg, route oral; conditions: in vivo

SMILES	half-life [1] [h]	Vd [2] [L/kg]	bioavailability [3] [%]	CL/F [4] [mL/min/kg]
COc1cc2nnc(C(N)=O)c(Nc3ccc(C)cc3F)c2cc1N1CCN(C)CC1	5.7	3.8	100	12
COc1cc2nnc(C(N)=O)c(Nc3ccc(C)cc3F)c2cc1N1CCN(S(C)(=O)=O)CC1	1.5	1.7	3	22
COc1cc2nnc(C(N)=O)c(Nc3ccc(C)cc3F)c2cc1N1C[C@@H](C)N[C@@H](C)C1	4.4	1.6	61	4
COCCN1CCN(c2cc3c(Nc4ccc(C)cc4F)c(C(N)=O)nnc3cc2OC)CC1	7.6	4.3	3	21
COc1cc2nnc(C(N)=O)c(Nc3ccc(C)cc3F)c2cc1N1CCC(N(C)C)CC1	0.9	2.2	15	34
COc1cc2nnc(C(N)=O)c(Nc3ccc(C)cc3F)c2cc1N1CCN(C(C)C)CC1	2.5	3.8	100	17
COc1cc2nnc(C(N)=O)c(Nc3ccc(C)cc3F)c2cc1N1CCOCC1	0.5	1.7	25	60
COc1cc2nnc(C(N)=O)c(Nc3ccc(C)cc3F)c2cc1N1CCN(C(=O)[C@@H](C)O)CC1	0.9	1.3	53	24

The next lines start with the values.

half-life [1] [h]	Vd [2] [L/kg]	bioavailability [3] [%]	CL/F [4] [mL/min/kg]	SMILES
0.6	1.8	21	58	COc1cc2nnc(C(N)=O)c(Nc3ccc(C)cc3F)c2cc1N1CCC(OC)CC1
3.1	2.2	42	7	COc1cc2nnc(C(N)=O)c(Nc3ccc(C)cc3F)c2cc1N1CCN(CCO)CC1
6.1	3.1	100	8	COc1cc2nnc(C(N)=O)c(Nc3ccc(C)cc3F)c2cc1C1CCN(CCO)CC1
3.5	2.6	100	14	COc1cc2nnc(C(N)=O)c(Nc3ccc(C)cc3F)c2cc1C1CCN(C(C)C)CC1
0.9	2.2	4	66	COc1cc2nnc(C(N)=O)c(Nc3ccc(C)cc3F)c2cc1N1CCCN(CCO)CC1
